Reference: publication PMC11013419, “Understanding Antidiabetic Potential of Oligosaccharides from Red Alga Dulse Devaleraea inkyuleei Xylan by Investigating α-Amylase and α-Glucosidase Inhibition” (Molecules, 2024)

Experiments:
MGAM [1] = molecular target: MGAM; design: method as in PMID 22058037; settings: as reported; cited from earlier work
[2] = molecular target: T1, recombined human maltase-glucoamylase (MGAM) (Homo sapiens, UniProt O43451); test: MGAM inhibition assay (glucose released from maltose); assay type: biochemical; settings: maltose substrate, 37 °C, pH 6.4
T1 construct: made in house
T1 sequence (O43451 whole entry): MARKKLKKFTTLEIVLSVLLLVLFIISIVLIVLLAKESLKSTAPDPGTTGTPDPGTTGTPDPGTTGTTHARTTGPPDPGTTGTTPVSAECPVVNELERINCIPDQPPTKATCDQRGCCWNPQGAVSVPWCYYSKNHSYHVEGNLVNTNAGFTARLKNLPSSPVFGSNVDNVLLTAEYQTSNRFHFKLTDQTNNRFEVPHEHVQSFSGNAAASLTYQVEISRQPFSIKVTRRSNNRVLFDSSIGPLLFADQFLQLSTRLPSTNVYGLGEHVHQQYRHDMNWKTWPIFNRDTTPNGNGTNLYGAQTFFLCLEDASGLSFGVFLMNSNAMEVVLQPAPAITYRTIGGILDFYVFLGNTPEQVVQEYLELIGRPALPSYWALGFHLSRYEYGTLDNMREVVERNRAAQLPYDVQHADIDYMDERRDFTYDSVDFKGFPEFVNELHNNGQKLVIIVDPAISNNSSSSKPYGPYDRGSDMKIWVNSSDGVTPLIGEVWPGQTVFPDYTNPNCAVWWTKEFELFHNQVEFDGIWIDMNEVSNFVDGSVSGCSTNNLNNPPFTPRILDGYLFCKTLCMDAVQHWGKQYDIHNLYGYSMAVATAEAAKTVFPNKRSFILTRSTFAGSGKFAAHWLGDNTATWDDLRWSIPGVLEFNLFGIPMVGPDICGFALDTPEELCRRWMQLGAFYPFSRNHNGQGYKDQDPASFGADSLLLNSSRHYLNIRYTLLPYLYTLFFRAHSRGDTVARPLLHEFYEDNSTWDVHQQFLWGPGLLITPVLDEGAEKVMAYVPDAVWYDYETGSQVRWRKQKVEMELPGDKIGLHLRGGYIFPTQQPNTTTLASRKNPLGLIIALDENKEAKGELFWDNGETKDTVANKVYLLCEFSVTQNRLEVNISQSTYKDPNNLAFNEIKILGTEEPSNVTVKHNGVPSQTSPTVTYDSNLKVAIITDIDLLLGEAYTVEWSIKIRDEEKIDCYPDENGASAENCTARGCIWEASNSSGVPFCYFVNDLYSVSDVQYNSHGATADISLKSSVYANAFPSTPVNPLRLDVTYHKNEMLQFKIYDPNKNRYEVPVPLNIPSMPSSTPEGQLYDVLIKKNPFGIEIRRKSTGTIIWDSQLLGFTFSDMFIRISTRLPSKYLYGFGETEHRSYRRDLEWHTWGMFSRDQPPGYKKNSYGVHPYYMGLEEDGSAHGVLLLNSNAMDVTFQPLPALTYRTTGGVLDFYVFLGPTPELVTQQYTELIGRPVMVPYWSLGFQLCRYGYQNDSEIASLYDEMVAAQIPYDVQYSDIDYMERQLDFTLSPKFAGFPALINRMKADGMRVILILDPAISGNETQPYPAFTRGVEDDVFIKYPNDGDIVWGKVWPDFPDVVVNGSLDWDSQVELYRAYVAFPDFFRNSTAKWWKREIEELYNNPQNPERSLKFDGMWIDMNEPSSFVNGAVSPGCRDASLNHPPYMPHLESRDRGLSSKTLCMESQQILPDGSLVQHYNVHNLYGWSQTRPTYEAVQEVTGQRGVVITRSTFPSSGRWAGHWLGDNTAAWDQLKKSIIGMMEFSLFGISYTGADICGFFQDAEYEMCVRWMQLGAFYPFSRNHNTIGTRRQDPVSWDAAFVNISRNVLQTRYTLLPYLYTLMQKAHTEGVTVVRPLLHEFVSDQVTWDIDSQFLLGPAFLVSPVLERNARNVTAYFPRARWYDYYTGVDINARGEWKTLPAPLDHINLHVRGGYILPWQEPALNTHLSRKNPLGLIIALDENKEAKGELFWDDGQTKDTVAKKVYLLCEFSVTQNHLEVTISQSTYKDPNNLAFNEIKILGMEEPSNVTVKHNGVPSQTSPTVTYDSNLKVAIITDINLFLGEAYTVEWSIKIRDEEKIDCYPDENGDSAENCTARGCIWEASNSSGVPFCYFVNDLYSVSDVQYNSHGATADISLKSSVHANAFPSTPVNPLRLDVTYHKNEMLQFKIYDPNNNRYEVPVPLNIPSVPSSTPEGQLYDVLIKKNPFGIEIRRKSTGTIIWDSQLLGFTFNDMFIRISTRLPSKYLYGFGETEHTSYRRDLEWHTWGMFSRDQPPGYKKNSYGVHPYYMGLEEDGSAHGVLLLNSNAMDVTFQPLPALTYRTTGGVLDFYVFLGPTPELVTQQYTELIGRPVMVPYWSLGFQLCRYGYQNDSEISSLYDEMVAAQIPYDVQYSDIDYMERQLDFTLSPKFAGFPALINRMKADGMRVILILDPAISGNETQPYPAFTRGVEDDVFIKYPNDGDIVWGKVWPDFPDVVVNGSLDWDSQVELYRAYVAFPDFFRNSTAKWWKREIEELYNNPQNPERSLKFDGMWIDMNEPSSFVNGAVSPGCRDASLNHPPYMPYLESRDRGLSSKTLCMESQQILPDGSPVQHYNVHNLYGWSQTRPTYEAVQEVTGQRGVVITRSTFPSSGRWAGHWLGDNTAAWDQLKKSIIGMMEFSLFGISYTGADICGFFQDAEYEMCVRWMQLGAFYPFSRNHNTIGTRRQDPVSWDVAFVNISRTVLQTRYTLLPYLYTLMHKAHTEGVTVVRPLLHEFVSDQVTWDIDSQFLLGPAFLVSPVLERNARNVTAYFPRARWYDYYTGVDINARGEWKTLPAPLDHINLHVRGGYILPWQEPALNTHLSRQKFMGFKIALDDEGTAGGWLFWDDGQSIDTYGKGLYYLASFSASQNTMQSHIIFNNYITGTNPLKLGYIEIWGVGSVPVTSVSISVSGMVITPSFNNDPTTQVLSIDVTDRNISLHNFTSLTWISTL
Description: (§1) For this experiment, recombined human maltase-glucoamylase (MGAM) was prepared as previously reported and dissolved in 0.1 M phosphate buffer (pH 6.4) to produce a solution at 0.5 U/mL. Pre-incubation was initiated by mixing 20 µL of MGAM solution with 20 µL of inhibitor or distilled water for 10 min at 37 °C. Then, 40 µL of 8 mM maltose or phosphate buffer was added and the mixture was incubated at 37 °C for 10 min, and the reaction was stopped by boiling for 10 min and cooling in an ice bath. Glucose was quantified using a Glucose CII-test (Wako Pure Chemical Industries, Osaka, Japan). The 20 µL reaction mixture was added to a 100 µL of Glucose CII-test. The reaction proceeded for 10 min at 37 °C, and the absorbance at 492 nm was measured. The inhibition was analysed at different inhibitor and substrate concentrations. The half-maximum inhibition concentration (IC50) was calculated using nonlinear regression. The MGAM inhibitory activity was calculated as follows: MGAM inhibitory activity=1−As−A0/Ac×100 where As represents the absorbance of the sample, Ac is the absorbance of the control without the inhibitor, and A0 is the absorbance of the sample without MGAM.

MGAM [3] = molecular target: T2, MGAM (Homo sapiens, UniProt O43451); test: Kinetics of MGAM inhibition (Michaelis–Menten, Lineweaver–Burk); assay type: biochemical; settings: for Inhibition Type (MGAM): Lineweaver–Burk plot; for Vmax^app, inhibitor concentration A / Vmax^app, inhibitor concentration B / Vmax^app, inhibitor concentration C: MGAM, without inhibitor 0.089; for Vmax^app, inhibitor concentration A: A: X2 1.49, X3 1.63, DX3 1.33, DX4 1.28 mg/mL; for Vmax^app, inhibitor concentration B: B: X2 2.79, X3 4.08, DX3 3.32, DX4 3.19 mg/mL; for Vmax^app, inhibitor concentration C: C: X2 3.73, X3 10.19, DX3 8.30, DX4 7.98 mg/mL; for Ki: competitive inhibition constant
T2 construct: made in house
T2 sequence (O43451 whole entry): as above
Description: as §1
To study the kinetics of MGAM and α-amylase inhibition by XOS, the initial velocity in absorbance/min (ΔOD/min) was calculated at different substrate concentrations (0 to 10 mg/mL starch concentration for α-amylase and 0 to 8 mM maltose concentration for MGAM) and XOS concentrations. The values of initial velocity at different substrate concentrations at each XOS concentration was plotted (Michaelis–Menten plot), as well as the double reciprocal plot at each XOS concentration (Lineweaver–Burk plot).
The Michaelis–Menten equation for competitive inhibition is given as follows: v=Vmax×S/Km1+I/Ki+S=Vmaxapp×S/Kmapp+S
And the corresponding Lineweaver–Burk equation is given as follows: 1/v=Km/Vmax1+I/Ki1/S+1/Vmax where v is the initial velocity, Vmax is the maximum initial reaction velocity, I is the concentration of the inhibitor, S is the concentration of the substrate, Km is the Michaelis constant, and Ki is the competitive inhibition constant.

[4] = molecular target: T3, α-amylase from porcine pancreas (Sus scrofa, UniProt P00690); test: α-Amylase inhibition assay (starch, DNS method); assay type: biochemical; settings: for IC50: porcine pancreas α-amylase, 1% starch, 37 °C, pH 6.9
T3 construct: α-amylase from porcine pancreas (EC 3.2.1.1), type VI-B; purchased Sigma Aldrich type VI-B; host or cells: porcine pancreas
T3 sequence (P00690 16-511): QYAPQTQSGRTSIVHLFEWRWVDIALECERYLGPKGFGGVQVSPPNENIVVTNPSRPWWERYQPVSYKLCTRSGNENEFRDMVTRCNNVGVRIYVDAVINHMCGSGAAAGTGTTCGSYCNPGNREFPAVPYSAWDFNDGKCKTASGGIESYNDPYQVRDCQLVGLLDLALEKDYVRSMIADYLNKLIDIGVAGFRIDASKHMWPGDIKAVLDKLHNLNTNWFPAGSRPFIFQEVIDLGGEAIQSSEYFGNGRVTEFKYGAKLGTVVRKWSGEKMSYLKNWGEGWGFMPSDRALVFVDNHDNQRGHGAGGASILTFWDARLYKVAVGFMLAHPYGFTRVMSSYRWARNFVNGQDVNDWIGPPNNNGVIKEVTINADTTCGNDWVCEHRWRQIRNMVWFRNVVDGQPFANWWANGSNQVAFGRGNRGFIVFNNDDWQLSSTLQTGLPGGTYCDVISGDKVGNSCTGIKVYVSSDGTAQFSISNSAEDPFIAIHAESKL
Description: (§2) The α-amylase from porcine pancreas solution was freshly prepared by mixing enzyme powder with 20 mM phosphate buffer (pH 6.9) containing 6.7 mM NaCl to produce a solution at 3 U/mL [39]. Pre-incubation was initiated by mixing 20 µL of α-amylase solution with 20 µL of inhibitor or distilled water for 10 min at 37 °C. Then, 20 µL of 1% (w/v) starch (prepared in 20 mM phosphate buffer (pH 6.9) containing 6.7 mM NaCl and heated at 100 °C for 10 min) or phosphate buffer was added, and the mixture was incubated at 37 °C for 10 min. The reaction was stopped by boiling the mixture for 10 min and cooling in an ice bath. The concentration of reducing sugars was calculated by the DNS method. The inhibition was analysed at different inhibitor and substrate concentrations. The half-maximum inhibition concentration (IC50) was calculated using nonlinear regression. The α-amylase inhibitory activity was calculated as follows: α-amylase inhibitory activity=1−As−A0/Ac×100 where As represents the absorbance of the sample, Ac is the absorbance of the control without the inhibitor, and A0 is the absorbance of the sample without α-amylase.

α-amylase = molecular target: T4, α-amylase (Sus scrofa, UniProt P00690); test: Kinetics of α-amylase inhibition (Michaelis–Menten, Lineweaver–Burk); assay type: biochemical, porcine
T4 construct: α-amylase from porcine pancreas (EC 3.2.1.1), type VI-B; purchased Sigma Aldrich type VI-B; host or cells: porcine pancreas
T4 sequence (P00690 16-511): T3 sequence (P00690 16-511)
Description: as §2, with “α-amylase. […]” for “α-amylase.”

α-glucosidase = tested on: α-glucosidase; design: method as in doi:10.1007/s12257-017-0049-8; settings: at 10 mg/mL; cited from earlier work

Row | SMILES | IC50 [2] [mM] | Inhibition Type (MGAM) (MGAM [3]) | Vmax^app, inhibitor concentration A (MGAM [3]) [DO/min] | Vmax^app, inhibitor concentration B (MGAM [3]) [DO/min] | Vmax^app, inhibitor concentration C (MGAM [3]) [DO/min] | Ki (MGAM [3]) [mM] | inhibition rate (α-glucosidase) [%] | other results
1 | C[C@H]1O[C@H](O[C@H]2[C@H](O)[C@@H](O)[C@@H](O[C@H]3[C@H](O)[C@@H](O)C(O)O[C@@H]3CO)O[C@@H]2CO)[C@H](O)[C@@H](O)[C@@H]1N[C@H]1C=C(CO)[C@@H](O)[C@H](O)[C@H]1O (stereo partly shown) [Acarbose] |  |  |  |  |  |  |  | Ki (MGAM [1]): 0.062 mM; Ki for MGAM (MGAM [1]): 40 µg/mL
2 | OC1COC(OC2C(O)COC(OC3COC(O)C(O)C3O)C2O)C(O)C1O (stereo not drawn) [DX3, β-(1→3)-xylosyl-β-(1→4)-xylobiose] | 32.3 | Competitive | 0.101 | 0.093 | 0.102 | 44.2 |  | IC50 [4]: 128 mM
3 | OC1COC(OC2C(O)COC(OC3COC(OC4COC(O)C(O)C4O)C(O)C3O)C2O)C(O)C1O (stereo not drawn) [DX4, β-(1→3)-xylosyl-β-(1→4)-xylotriose] | 23.6 | Competitive | 0.102 | 0.105 | 0.102 | 42.7 |  | inhibition at 10640 µg/mL ([4]; at 10.64 mg/mL): 2.9%
4 | OC1COC(OC2COC(O)C(O)C2O)C(O)C1O (stereo not drawn) [X2, β-(1→4)-xylobiose] | 45 | Competitive | 0.086 | 0.086 | 0.086 | 53.9 |  | Inhibition type (α-amylase) (α-amylase; Lineweaver–Burk plot): competitive; Vmax^app (α-amylase) (α-amylase; X2 12.42 mg/mL, X3 13.58 mg/mL, without inhibitor 0.056): 0.061 DO/min; IC50 [4]: 64 mM
5 | OC[C@H]1OC(O)[C@H](O)[C@@H](O[C@@H]2O[C@H]3CO[C@@H]([C@@H]2O)[C@@H]3O)[C@H]1O (stereo partly shown) [neoagarobiose] |  |  |  |  |  |  | 35.3 | 
6 | OC[C@H]1O[C@@H](O)[C@H](O)[C@@H](O[C@@H]2O[C@H]3CO[C@@H]([C@@H]2O)[C@@H]3O[C@@H]2O[C@H](CO)[C@H](O)[C@H](O[C@@H]3O[C@H]4CO[C@@H]([C@@H]3O)[C@@H]4O[C@@H]3O[C@H](CO)[C@H](O)[C@H](O[C@@H]4O[C@H]5CO[C@@H]([C@@H]4O)[C@@H]5O)[C@H]3O)[C@H]2O)[C@H]1O [neoagarohexaose] |  |  |  |  |  |  | 17.0 | 
7 | OC[C@H]1O[C@@H](O)[C@H](O)[C@@H](O[C@@H]2O[C@H]3CO[C@@H]([C@@H]2O)[C@@H]3O[C@@H]2O[C@H](CO)[C@H](O)[C@H](O[C@@H]3O[C@H]4CO[C@@H]([C@@H]3O)[C@@H]4O)[C@H]2O)[C@H]1O [neoagarotetraose] |  |  |  |  |  |  | 33.2 | 
